Patent US20250243180A1, “TARGETED PROTEIN DEGRADATION” (Monte Rosa Therapeutics AG, priority 2023, published 2025)
Like-named read-outs stand apart in the source and are kept apart here.

Key:
IL-1β release = IL-1β release in human monocyte-derived macrophages, LPS/nigericin stimulation; type: cell-based; conditions: Macrophage, 24 h pre-treatment, LPS 3 h then 10 μM nigericin 1 h, read-out: IL-1b IC50 (NIG)
Procedure: (§1) Human monocytes were enriched and isolated from a buffy coat of healthy donor whole blood with a RosetteSep™ Human Monocyte Enrichment Cocktail (Cat.No. 15068, StemCell) and Ficoll-Plaque PLUS (Cat.No. H8889, Sigma). Monocytes were differentiated into macrophages by treatment with 100 ng/mL M-CSF for 6 days at 37° C., 5% CO2. Differentiated macrophages were seeded overnight (50,000 cells/well) in 100 µL of medium in a 96-well, white-bottom plate at 37° C., 5% CO2. Cells were treated with a concentration range of MGD for 24 hours prior to stimulation with nigericin. Macrophages were primed with […] LPS for 3 h followed by 1 h stimulation with 10 μM nigericin. Media of stimulated macrophages were collected and assayed for caspase 1 activity directly (Promega G9951), according to manufacturer's instructions. For IL-1β release assay, media of stimulated macrophages were collected and stored at −20° C., then thawed at 4° C. before assaying for IL-1β activity (Promega W6011), according to manufacturer's instructions.

CRBN-DDB1 = CRBN-DDB1 (Homo sapiens (Human), UniProt Q96SW2); assay: Compound binding to CRBN by HTRF assay
CRBN-DDB1, sequence (Q96SW2 whole entry): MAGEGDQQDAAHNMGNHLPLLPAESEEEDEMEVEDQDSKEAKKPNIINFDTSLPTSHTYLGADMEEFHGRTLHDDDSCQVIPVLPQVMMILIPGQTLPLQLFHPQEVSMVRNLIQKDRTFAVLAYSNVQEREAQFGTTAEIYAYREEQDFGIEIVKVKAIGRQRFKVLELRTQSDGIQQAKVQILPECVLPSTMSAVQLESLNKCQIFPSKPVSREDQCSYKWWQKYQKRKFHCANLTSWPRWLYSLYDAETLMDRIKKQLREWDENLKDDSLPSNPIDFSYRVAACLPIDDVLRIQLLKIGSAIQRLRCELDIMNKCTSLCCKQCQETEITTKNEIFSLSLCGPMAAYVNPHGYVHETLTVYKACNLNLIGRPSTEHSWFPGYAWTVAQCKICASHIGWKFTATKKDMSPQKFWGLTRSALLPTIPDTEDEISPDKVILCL
CRBN-DDB1, sequence (Q16531 whole entry partner): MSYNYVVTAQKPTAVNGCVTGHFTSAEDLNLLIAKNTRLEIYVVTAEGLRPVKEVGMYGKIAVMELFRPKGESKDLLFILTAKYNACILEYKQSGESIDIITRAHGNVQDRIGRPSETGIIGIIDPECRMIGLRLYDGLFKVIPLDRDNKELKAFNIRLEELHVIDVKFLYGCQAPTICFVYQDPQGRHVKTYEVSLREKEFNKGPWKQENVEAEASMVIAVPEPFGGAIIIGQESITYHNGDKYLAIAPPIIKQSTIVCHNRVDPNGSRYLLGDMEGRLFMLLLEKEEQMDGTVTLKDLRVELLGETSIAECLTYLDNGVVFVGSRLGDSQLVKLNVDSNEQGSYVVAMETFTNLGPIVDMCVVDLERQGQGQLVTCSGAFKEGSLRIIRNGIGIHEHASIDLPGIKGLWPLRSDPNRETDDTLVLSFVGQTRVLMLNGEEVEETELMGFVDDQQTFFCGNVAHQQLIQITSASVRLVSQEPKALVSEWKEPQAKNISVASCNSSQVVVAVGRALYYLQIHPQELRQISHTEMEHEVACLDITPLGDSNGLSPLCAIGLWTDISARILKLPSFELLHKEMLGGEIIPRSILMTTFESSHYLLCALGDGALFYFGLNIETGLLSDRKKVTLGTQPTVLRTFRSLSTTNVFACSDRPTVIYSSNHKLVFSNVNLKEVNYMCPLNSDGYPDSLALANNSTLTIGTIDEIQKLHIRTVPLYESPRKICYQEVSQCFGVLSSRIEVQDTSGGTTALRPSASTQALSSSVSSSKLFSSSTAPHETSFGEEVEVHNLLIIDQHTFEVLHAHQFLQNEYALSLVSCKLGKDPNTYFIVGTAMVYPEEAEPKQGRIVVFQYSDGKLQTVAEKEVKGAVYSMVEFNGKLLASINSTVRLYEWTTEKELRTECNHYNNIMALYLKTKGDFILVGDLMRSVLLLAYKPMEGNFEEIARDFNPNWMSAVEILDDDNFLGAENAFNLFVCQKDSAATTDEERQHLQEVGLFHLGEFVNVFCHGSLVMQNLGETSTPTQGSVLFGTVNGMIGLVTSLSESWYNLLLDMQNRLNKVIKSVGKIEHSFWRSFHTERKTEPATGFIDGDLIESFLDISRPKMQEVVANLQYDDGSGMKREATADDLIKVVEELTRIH
Method in brief: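 HTRF displacement of Cy5-thalidomide probe (100 nM) from His-tagged CRBN-DDB1 (2.5 nM) with anti-His terbium cryptate, in HEPES/NaCl/TCEP/EDTA/Tween20 buffer; 11-point 1:3 dilution series, 30 min at ambient temperature. Signal (665/620 nm) normalized to lenalidomide and DMSO controls; EC50 fitted, Ki by Cheng-Prusoff from geometric mean EC50.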

NEK7 = NEK7 (Homo sapiens (Human), UniProt Q8TDX7+Q96SW2); assay: NEK7 NanoBiT degradation assay in Cal51 NEK7 NanoBiT cell line; type: cell-based; conditions: Cal51 NEK7 NanoBiT cells, 24 hours; for Dmax: CAL-51
NEK7, sequence (Q8TDX7 whole entry): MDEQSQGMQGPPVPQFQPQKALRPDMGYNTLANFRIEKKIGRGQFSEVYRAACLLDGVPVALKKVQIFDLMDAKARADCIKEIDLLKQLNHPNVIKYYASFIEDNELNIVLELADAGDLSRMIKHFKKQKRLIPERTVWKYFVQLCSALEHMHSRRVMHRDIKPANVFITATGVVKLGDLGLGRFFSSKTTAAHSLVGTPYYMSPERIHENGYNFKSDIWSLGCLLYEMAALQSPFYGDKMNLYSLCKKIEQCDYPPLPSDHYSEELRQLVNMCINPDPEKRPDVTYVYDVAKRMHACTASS
NEK7, sequence (Q96SW2 whole entry): as the sequence (Q96SW2 whole entry) above
NEK7, sequence (Q16531 2-1140 partner): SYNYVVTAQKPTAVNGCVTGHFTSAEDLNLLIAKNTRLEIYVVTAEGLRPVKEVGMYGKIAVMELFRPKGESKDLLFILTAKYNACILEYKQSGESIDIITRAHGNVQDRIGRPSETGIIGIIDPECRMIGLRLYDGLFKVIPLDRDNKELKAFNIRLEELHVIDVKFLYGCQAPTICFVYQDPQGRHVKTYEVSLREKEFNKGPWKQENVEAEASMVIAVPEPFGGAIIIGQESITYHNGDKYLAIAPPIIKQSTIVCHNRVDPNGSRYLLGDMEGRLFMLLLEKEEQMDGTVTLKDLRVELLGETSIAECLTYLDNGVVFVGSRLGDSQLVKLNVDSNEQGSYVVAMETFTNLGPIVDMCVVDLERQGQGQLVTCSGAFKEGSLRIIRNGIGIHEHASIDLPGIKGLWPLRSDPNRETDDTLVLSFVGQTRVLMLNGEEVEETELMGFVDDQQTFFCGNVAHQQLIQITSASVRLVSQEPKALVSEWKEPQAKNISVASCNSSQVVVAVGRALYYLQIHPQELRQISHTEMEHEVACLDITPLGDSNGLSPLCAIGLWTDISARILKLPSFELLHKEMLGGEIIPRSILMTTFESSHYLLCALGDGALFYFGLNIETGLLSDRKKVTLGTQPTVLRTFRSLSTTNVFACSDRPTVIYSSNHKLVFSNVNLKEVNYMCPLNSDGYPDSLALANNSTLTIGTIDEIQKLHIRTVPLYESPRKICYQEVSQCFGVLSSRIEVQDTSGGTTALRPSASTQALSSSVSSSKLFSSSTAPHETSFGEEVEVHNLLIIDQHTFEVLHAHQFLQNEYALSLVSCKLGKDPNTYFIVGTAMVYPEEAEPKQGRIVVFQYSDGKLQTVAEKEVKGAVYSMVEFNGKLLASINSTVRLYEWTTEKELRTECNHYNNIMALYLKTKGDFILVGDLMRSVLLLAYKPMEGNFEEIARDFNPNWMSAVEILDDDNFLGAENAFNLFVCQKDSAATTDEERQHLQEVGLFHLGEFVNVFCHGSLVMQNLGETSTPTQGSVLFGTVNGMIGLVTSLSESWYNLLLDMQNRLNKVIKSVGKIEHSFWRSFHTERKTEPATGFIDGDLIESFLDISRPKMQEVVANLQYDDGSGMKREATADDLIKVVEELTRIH
Method in brief: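 Cal51 cells with CRISPR knock-in HiBiT-tagged endogenous NEK7 plus stable LgBiT, in live-cell Endurazine medium, seeded 16 h before dosing. Compounds at final 1 μM to 0.05 nM for 24 h at 37 °C, then luminescence read. Response normalized to plate controls and fitted with a 4-parameter logistic giving EC50.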

Caspase-1 activity = Caspase-1 activity in human monocyte-derived macrophages, LPS/nigericin stimulation; type: cell-based; conditions: Macrophage, 24 h pre-treatment, LPS 3 h then 10 μM nigericin 1 h, read-out: Caspase-1 IC50 (NIG)
Procedure: as §1

[1] = NEK7 degradation, read-out: NanoBiT Dmax
[2] = NEK7 degradation, read-out: NanoBiT DC50

Row | IC50 (IL-1β release) [nM] | EC50 (CRBN-DDB1) [nM] | EC50 (CRBN-DDB1; HTRF class, Cereblon binding) [nM] | Dmax (NEK7; read-out: NEK7 NanoBiT Dmax) [%] | Dmax (NEK7; [1]) [%] | DC50 (NEK7; read-out: NEK7 NanoBiT DC50) [nM] | DC50 (NEK7; [2]) [nM] | IC50 (Caspase-1 activity) [nM] | Structure (SMILES)
1 | 1.95 | 110 | 100 to 1000 | 89 | > 75 | 9 | ≤ 100 | 1.85 | Cc1cnc(C(C)(C)C(=O)NCc2cc(Cl)c(C3CCC(=O)NC3=O)c(Cl)c2)nc1 (stereo not shown) [Compound 14, N-(3,5-dichloro-4-(2,6-dioxopiperidin-3-yl)benzyl)-2-methyl-2-(5-methylpyrimidin-2-yl)-propanamide]
2 | 0.56 | 120 | 100 to 1000 | 95 | > 75 | 4 | ≤ 100 | 0.32 | CC(C)(C(=O)NCc1cc(Cl)c(C2CCC(=O)NC2=O)c(Cl)c1)c1ncc(C#N)cn1 (stereo not shown) [Compound 16, 2-(5-cyanopyrimidin-2-yl)-N-(3,5-dichloro-4-(2,6-dioxopiperidin-3-yl)benzyl)-2-methyl-propanamide]
